How the values were obtained:
[1] = target: T1, ENaC (Epithelial Sodium Channel) in mouse kidney M-1 cells (Mus musculus, UniProt Q61180+Q9WU38+Q9WU39); experiment: Ussing Chamber assay (short circuit current, amiloride sensitive I_SC); type: cell-based; details: apical administration, 37° C.
T1 construct: Mouse kidney M-1 cells were cultivated in DMEM containing 5% FCS and 5 μM dexamethasone; endogenous in cells; host or cells: mouse kidney M-1 cells
T1 sequence (Q61180 1-699): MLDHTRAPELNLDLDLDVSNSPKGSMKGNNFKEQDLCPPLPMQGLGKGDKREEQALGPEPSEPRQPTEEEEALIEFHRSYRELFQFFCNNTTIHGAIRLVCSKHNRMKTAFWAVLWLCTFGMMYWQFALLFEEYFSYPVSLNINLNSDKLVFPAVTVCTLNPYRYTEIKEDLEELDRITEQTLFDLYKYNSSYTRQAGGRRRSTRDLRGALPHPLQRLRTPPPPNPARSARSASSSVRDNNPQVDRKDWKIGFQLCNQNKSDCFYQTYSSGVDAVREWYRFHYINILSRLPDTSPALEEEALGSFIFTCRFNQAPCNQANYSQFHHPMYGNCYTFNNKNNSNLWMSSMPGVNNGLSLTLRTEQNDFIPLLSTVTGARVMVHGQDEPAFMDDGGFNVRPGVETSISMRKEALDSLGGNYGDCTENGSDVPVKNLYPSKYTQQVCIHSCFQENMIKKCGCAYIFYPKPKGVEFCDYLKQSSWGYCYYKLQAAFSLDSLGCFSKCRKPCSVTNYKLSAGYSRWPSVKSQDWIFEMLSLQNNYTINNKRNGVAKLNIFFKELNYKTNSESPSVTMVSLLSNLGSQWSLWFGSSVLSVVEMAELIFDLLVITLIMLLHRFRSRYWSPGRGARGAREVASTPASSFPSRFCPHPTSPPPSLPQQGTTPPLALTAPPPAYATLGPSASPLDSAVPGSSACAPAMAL
T1 sequence (Q9WU38 1-638): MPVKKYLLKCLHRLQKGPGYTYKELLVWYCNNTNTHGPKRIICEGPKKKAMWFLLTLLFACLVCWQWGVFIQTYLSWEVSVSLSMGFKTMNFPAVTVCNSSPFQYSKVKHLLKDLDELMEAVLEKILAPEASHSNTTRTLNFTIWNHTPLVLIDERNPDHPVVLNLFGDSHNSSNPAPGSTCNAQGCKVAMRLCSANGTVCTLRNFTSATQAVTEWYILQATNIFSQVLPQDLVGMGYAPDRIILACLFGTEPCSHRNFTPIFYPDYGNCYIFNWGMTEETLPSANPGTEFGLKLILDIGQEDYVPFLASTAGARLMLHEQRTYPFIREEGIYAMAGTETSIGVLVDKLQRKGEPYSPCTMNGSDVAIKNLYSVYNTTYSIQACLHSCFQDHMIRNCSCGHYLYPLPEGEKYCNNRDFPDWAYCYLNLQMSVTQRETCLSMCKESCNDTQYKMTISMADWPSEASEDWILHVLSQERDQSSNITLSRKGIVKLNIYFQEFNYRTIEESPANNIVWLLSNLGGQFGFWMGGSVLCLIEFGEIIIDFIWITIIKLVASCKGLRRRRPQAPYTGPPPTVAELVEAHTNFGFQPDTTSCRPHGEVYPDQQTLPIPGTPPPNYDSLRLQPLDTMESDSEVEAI
T1 sequence (Q9WU39 1-655): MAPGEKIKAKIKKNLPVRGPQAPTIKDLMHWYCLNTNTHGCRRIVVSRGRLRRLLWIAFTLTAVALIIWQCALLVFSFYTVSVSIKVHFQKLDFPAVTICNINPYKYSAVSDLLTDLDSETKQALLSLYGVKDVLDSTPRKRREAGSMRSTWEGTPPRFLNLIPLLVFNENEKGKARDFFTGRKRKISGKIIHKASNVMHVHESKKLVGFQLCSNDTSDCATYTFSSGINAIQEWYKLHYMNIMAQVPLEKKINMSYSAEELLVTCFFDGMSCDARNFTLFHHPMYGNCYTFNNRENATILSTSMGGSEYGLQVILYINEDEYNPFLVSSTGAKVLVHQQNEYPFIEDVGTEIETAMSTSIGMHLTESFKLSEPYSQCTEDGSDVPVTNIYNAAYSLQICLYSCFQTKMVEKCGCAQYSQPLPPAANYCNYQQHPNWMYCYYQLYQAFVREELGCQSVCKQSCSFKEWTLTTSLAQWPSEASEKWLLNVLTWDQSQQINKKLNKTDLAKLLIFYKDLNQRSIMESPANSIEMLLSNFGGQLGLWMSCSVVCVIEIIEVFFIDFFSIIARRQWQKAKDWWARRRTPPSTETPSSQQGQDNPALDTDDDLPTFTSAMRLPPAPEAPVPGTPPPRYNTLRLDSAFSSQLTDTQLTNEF
Procedure: The IC50 values of the example compounds given above were determined in the Ussing Chamber assay.
Ussing Chamber: Mouse kidney M-1 cells were cultivated in DMEM containing 5% FCS and 5 μM dexamethasone for 10 to 12 days on polyester transwell filters. Filters were inserted into a teflon-coated well-plate which fit into the ussing chamber system. Prior to measurement the medium of M-1 cells was replaced with Caco-2 transport buffer (Invitrogen, Germany). During measurements, the Ussing chamber temperature was kept at 37° C. Short circuit currents (I_sc) were measured in the voltage-clamp mode with the software package Lab View for data acquisition and analysis. The transepithelial electrical resistance (TEER) was determined by the application of voltage steps of ±5 mV every 5 sec. Compounds were administered at a final concentration of 3 μM or at increasing concentrations (1-3-10 μM) to the apical solution. At the end of each experiment the amiloride sensitive I_SC was measured by adding 3 μM amiloride to the apical compartment. Results are expressed as inhibition in percent of the amiloride effect or as IC50.

[2] = Permeability in CALU-3 cells; type: in vitro ADME; details: human, CALU-3 monolayers, pH 7.4, 37° C., 10 μM compound; for Papp A→B at 90 min, 10 μM: apical-to-basal; for Papp B→A at 90 min, 10 μM: basal-to-apical
Procedure: Permeability in CALU-3 Cells:
Permeability measurements across polarized, confluent CALU-3 cell monolayers grown on permeable filter supports are used to provide information on the potential of a compound to pass the lung epithelium. Apparent permeability coefficients (Papp) of the compounds across the CALU-3 cell monolayers are measured (pH 7.4, 37° C.) in apical-to-basal (AB) and basal-to-apical (BA) transport direction.
CALU-3 cells (1-2×10^5 cells/1 cm^2 area) are seeded on filter inserts (Costar transwell polycarbonate filters, 0.4 μm pore size) and cultured (for 10-12 days DMEM) until tight monolayers are formed. Compounds of interest are dissolved in appropriate solvent (DMSO, 10 mM stock solution). Stock solutions are diluted with HTP-4 buffer (128.13 mM NaCl, 5.36 mM KCl, 1 mM MgSO4, 1.8 mM CaCl2, 4.17 mM NaHCO3, 1.19 mM Na2HPO4 x 7H2O, 0.41 mM NaH2PO4xH2O, 15 mM HEPES, 20 mM glucose, 0.25% BSA, pH 7.4) to prepare the transport solutions (10 μM compound, final DMSO <=0.5%). The transport solution (TL) is applied to the apical or basolateral donor side for measuring A-B or B-A permeability (3 filter replicates), respectively. The receiver side contains the same buffer as the donor side. After 30 min of accommodation, samples are collected at the start t0=0 min and at the end of the experiment tn=90 min from the donor and at 0, 30, 60, and 90 min also from the receiver chamber. Volume removed is […] by HTP-4 buffer. The compound concentration in the samples is measured by HPLC-MS/MS or scintillation counting. The permeability coefficient (Papp) and efflux ratio are calculated according to: Papp [cm/s]=(concentration receiver [nM]*volume receiver [mL]/time interval [sec])*(1/filter area)*(1/donor concentration [nM]).

SMILES	IC50 [1] [nM]	Papp A→B at 90 min, 10 μM [2] [×10⁻⁶ cm/s]	Papp B→A at 90 min, 10 μM [2] [×10⁻⁶ cm/s]
CCn1c(CNC(=O)c2nc(Cl)c(N)nc2N)[n+](CC)c2c(C(=O)NCCN(C)C)cccc21.[Cl-] [Example 3.05]	6	0.04	0.06
CCn1c(CNC(=O)c2nc(Cl)c(N)nc2N)[n+](CC)c2c(C(=O)N3CCN(C(=O)OC(C)(C)C)CC3)cccc21 [Example 3.04]	3		
CC[n+]1c(CNC(=O)c2nc(Cl)c(N)nc2N)n(C[C@@H]2CCCO2)c2cccc(OCC(=O)NC3CCNCC3)c21.O=C(O)C(F)(F)F.O=C([O-])C(F)(F)F [Example 4.01]	1	0.3	0.3
CCn1c(CNC(=O)c2nc(Cl)c(N)nc2N)[n+](CC)c2c(C(=O)NCCCN)cccc21.Cl.[Cl-] [Example 6.01]	5	0.1	0.09
CCn1c(CNC(=O)c2nc(Cl)c(N)nc2N)[n+](CC)c2c(C(=O)NC3CCN(C(=O)OC(C)(C)C)CC3)cccc21 [Example 3.02]	3		
CC[n+]1c(CNC(=O)c2nc(Cl)c(N)nc2N)n(C[C@@H]2CCCO2)c2cccc(OCC(=O)N3C[C@H](O)[C@@H](O)C3)c21 [Example 1.01]	36		
CCn1c(CNC(=O)c2nc(Cl)c(N)nc2N)[n+](CC)c2c(C(=O)N(C)Cc3nc(C)ccc3O)cccc21 [Example 3.01]	2		
CCn1c(CNC(=O)c2nc(Cl)c(N)nc2N)[n+](CC)c2c(C(=O)N3CCNCC3)cccc21.[Cl-] [Example 4.02]	3	0.2	0.1
CC[n+]1c(CNC(=O)c2nc(Br)c(N)nc2N)n(C[C@@H]2CCCO2)c2cccc(OCC(=O)N3C[C@H](O)[C@@H](O)C3)c21.O=C([O-])C(F)(F)F [Example 2.01]	24	0.2	0.2
CC[n+]1c(CNC(=O)c2nc(Cl)c(C)nc2N)n(C[C@@H]2CCCO2)c2cccc(OCC(=O)NC3CCN(C(=O)OC(C)(C)C)CC3)c21 [Example 1.07]	2		
CC[n+]1c(CNC(=O)c2nc(Cl)c(N)nc2N)n(C[C@@H]2CCCO2)c2cccc(OCC(=O)N(C)Cc3nc(C)ccc3[O-])c21 [Example 1.03]	31	0.3	0.5
CC[n+]1c(CNC(=O)c2nc(Cl)c(N)nc2N)n(CCOCCO)c2cccc(OCC(=O)NC3CCNCC3)c21 [Example 7.01]	11		
CCn1c(CNC(=O)c2nc(Cl)c(N)nc2N)[n+](CC)c2c(C(=O)NCCCNC(=O)OC(C)(C)C)cccc21 [Example 3.03]	5		
CCn1c(CNC(=O)c2nc(Cl)c(N)nc2N)[n+](CC)c2c(C(=O)NC3CCNCC3)cccc21.[Cl-] [Example 4.03]	5	0.08	0.1
CC[n+]1c(CNC(=O)c2nc(Cl)c(N)nc2N)n(CCOCCO)c2cccc(OC(CO)CO)c21 [Example 5.01]	16		

Source: US9932324B2, “Substituted benzimidazolium compounds useful in the treatment of respiratory diseases” (Boehringer Ingelheim International GmbH, priority 2015, dated 2018)
